This note sets out measurements from US9057727B2, “Screening methods using G-protein coupled receptors and related compositions” (The General Hospital Corporation, priority 2007, dated 2015).

Assay [1] deals with T1, human PTH1 receptor (Homo sapiens, UniProt Q03431).
T1 construct: expressed in transfected cells
T1 sequence (Q03431 27-593): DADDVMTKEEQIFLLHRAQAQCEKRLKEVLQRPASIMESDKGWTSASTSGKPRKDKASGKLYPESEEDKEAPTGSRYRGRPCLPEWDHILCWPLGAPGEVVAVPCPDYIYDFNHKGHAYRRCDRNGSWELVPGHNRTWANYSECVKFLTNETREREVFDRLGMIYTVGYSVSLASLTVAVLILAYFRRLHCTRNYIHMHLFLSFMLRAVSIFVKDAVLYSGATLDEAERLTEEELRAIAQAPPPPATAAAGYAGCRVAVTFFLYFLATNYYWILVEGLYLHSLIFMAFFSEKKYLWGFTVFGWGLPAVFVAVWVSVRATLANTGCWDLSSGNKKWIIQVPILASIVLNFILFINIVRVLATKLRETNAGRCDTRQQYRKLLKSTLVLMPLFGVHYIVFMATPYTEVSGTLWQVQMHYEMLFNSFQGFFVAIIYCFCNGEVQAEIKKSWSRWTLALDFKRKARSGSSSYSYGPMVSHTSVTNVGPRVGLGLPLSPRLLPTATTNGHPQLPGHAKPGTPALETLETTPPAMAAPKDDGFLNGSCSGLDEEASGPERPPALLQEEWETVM
The assay is described as follows: cAMP signaling dose-response in HKRK-B7 cells. It counts as cell-based. As to conditions: 15 min, 37° C., IBMX. On the procedure: In the cAMP experiments of FIG. 14, HKRK-B7 were seeded in 96 well plates at 1×10^5 cells/well and incubated overnight. On the following day, the cells were washed once with […] of binding buffer (50 mM Tris-HCl, pH 7.7, 100 mM NaCl, 5 mM KCl, 2 mM CaCl2, 5% heat-inactivated horse serum, 0.5% heat-inactivated fetal bovine serum), followed by addition of 100 μl cAMP assay buffer (DMEM, 2 mM IBMX, 1 mg/ml bovine serum albumin, 35 mM Hepes-NaOH, pH 7.4) on ice. […] After removing the medium, the plates were placed on powdered dry ice to freeze the cells and then removed from dry ice. The cells were thawed with 50 μl of 50 mM HCl and frozen again on dry ice. The level of intracellular cAMP was measured with a commercially available cAMP EIA kit (Biotrack cAMP EIA system, GE Healthcare).
HKRK-B, which are LLC-PK1 cells over-expressing human PTH1 receptor at levels of 9.5×10^5 per cell were used in the cAMP signaling assay. The cells were cultured at 37° C. in a humidified atmosphere containing 5% CO2 in Dulbecco's modified Eagle's medium (DMEM), supplemented with 10% fetal bovine serum (Hyclone), 100 units/ml penicillin G, and 100 μg/ml streptomycin sulfate (Invitrogen Corp). […] All peptides were dissolved at 1 mM in 10 mM acetic acid, and stored at −80° C. The cAMP stimulation assay was performed as described above for HKRK-B7 cells. […] Cells were treated for 15 minutes at 37° C. with varying concentrations of ligands in the presence of IBMX.

In assay [2] the target is T2, human PTHR, G protein-uncoupled conformation (R^0) (Homo sapiens, UniProt Q03431).
T2 construct: expressed in transfected cells; host or cells: COS-7, transient (Fugene-6)
T2 sequence (Q03431 27-593): T1 sequence (Q03431 27-593)
Kind of assay: Competition binding to R0 conformation of hPTHR (COS-7 membranes, GTPγS, 125I-PTH(1-34) tracer). The settings on record: human PTH receptor on COS-7 cell membranes. The gist of the method:
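Bound versus free radioligand was separated by vacuum filtration after 90 min incubation of COS-7 hPTHR membranes (20-100 μg/mL) with tracer and competing peptides. Non-specific binding came from a saturating unlabeled analog.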

Assay [3] relates to PTHR-CFPIC3/YFPCT (PTHR-cam). The assay is described as follows: FRET analysis of ligand binding/receptor activation in HEK-293 cells. The class given is cell-based, human.
Text: HEK-293 cells stably transfected with a PTHR construct (PTHR-cam) containing cyan fluorescent protein (CFP) in the third intracellular loop and yellow fluorescent protein (YFP) in the carboxy-terminal tail, were used to assess the kinetics of ligand binding to, and dissociation from the PTHR. With PTHR-cam, excitation of the CFP with ultraviolet light (λexc=436 nm) produces an intramolecular FRET to the YFP, which is observable as an increase in light emission from YFP (λemm=535 nm) and a decrease in light emission from CFP λemm=480 nm). This FRET signal occurs in the ground-state receptor and decreases upon agonist binding. […] Data are from a single experiment, and identical results were obtained in at least three others.
The approach used exploits an intramolecular FRET signal that occurs in a human PTHR construct, PTHR-CFPIC3/YFPCT (formerly called PTHR-cam). This construct contains cyan-fluorescent protein (CFP) in the third intracellular loop and yellow-fluorescent protein (YFP) in the carboxy-terminal tail. A FRET signal is produced by PTHR-CFPIC3/YFPCT in the basal state, and this signal diminishes upon agonist binding, likely due to conformational change that occurs upon activation.
HEK-293 cells stably expressing HEK-PTHR-CFPIC3/YFPCT (previously called HEK-PTHR-Cam cells (Vilardaga et al., Nat. Biotechnol. 21:807-812 (2003)) were grown on glass coverslips and processed for FRET analysis as described. With these cells, excitation of the CFP (donor) in PTHR-CFPIC3/YFPCT with ultraviolet light (λmax.ex.=436 nm; λmax.em.=480 nm) produces an intramolecular FRET to the YFP (acceptor), resulting in emission from that YFP (λmax.ex.=480 nm, λmax.em.=535 nm). This FRET response is observable as a decrease in intensity of CFP light emission at 480 nm, and an increase in intensity of YFP light emission at 535 nm. The FRET signal is produced by PTHR-CFPIC3/YFPCT in the ground-state receptor and decreases upon binding of an agonist. […] Fluorescence was monitored using a Zeiss inverted microscope equipped with a 100× objective and a dual emission photometric system (Til Photonics), coupled to an avalanche photodiode detection system and an analog-digital converter (Axon Instruments). The FRET signal detected upon excitation at 436 nm was calculated as the normalized FRET ratio: FYFP(535 nm)/FCFP(480 nm) where FYFP(535 nm) is the emission at 535 nm, corrected for spillover of the CFP signal into the YFP channel, and FCFP(480 nm) is the emission at 480 nm, corrected for spillover (minimal) of the YFP emission into the CFP channel. Changes in fluorescence emissions due to photo-bleaching were subtracted.

Square brackets hold non-standard residues; d marks the D form. Ends that are not written are not given here. Peptide text beside a SMILES is read from it. hArg = N=C(N)NCCCC[C@H](N)C(=O)O; Aib = CC(C)(N)C(=O)O

For `CC[C@H](C)[C@H](NC(=O)[C@H](CCC(=O)O)NC(=O)[C@H](C)NC(=O)[C@@H](NC(=O)[C@H](C)N)C(C)C)C(=O)N[C@@H](CCC(N)=O)C(=O)N[C@@H](CC(C)C)C(=O)N[C@@H](CCSC)C(=O)N[C@@H](Cc1c[nH]cn1)C(=O)N[C@@H](CCC(N)=O)C(=O)N[C@@H](CCCNC(=N)N)C(=O)N[C@@H](C)C(=O)N[C@@H](CCCCN)C(=O)N[C@@H](Cc1c[nH]c2ccccc12)C(=O)N[C@@H](CC(C)C)C(=O)N[C@@H](CC(N)=O)C(=O)N[C@@H](CO)C(=O)N[C@@H](CCSC)C(=O)N[C@@H](CCCNC(=N)N)C(=O)N[C@@H](CCCNC(=N)N)C(=O)N[C@H](C(=O)N[C@@H](CCC(=O)O)C(=O)N[C@@H](Cc1c[nH]c2ccccc12)C(=O)N[C@@H](CC(C)C)C(=O)N[C@@H](CCCNC(=N)N)C(=O)N[C@@H](CCCCN)C(=O)N[C@@H](CCCCN)C(=O)N[C@@H](CC(C)C)C(=O)N[C@@H](CCC(N)=O)C(=O)N[C@@H](CC(=O)O)C(=O)N[C@H](C(=O)N[C@@H](Cc1c[nH]cn1)C(=O)N[C@@H](CC(N)=O)C(=O)N[C@@H](Cc1ccccc1)C(=O)O)C(C)C)C(C)C` [Mc-PTH34(R19), Mc-hPTH(1-34)OH] (H-AVAEIQLMHQRAKWLNSMRRVEWLRKKLQDVHNF-OH; N-terminus assumed), the “cAMP in HKRK-B7 cells Max” value in assay [1] was 65.5 pm/well.
In the case of `CC[C@H](C)[C@H](NC(=O)[C@H](CCC(=O)O)NC(=O)[C@H](C)NC(=O)[C@@H](NC(=O)[C@H](C)N)C(C)C)C(=O)N[C@@H](CCC(N)=O)C(=O)N[C@@H](CC(C)C)C(=O)N[C@@H](CCSC)C(=O)N[C@@H](Cc1c[nH]cn1)C(=O)N[C@@H](CCC(N)=O)C(=O)N[C@@H](CCCNC(=N)N)C(=O)NCC(=O)N[C@@H](CCCCN)C(=O)N[C@@H](Cc1c[nH]cn1)C(=O)N[C@@H](CC(C)C)C(=O)N[C@@H](CC(N)=O)C(=O)N[C@@H](CO)C(=O)N[C@@H](CCSC)C(=O)N[C@@H](CCC(=O)O)C(=O)N[C@@H](CCCNC(=N)N)C(=O)N[C@H](C(=O)N[C@@H](CCC(=O)O)C(=O)N[C@@H](C)C(=O)N[C@@H](CC(C)C)C(=O)N[C@@H](CCCNC(=N)N)C(=O)N[C@@H](CCCCN)C(=O)N[C@@H](CCCCN)C(=O)N[C@@H](CC(C)C)C(=O)N[C@@H](CCC(N)=O)C(=O)N[C@@H](CC(=O)O)C(=O)N[C@H](C(=O)N[C@@H](Cc1c[nH]cn1)C(=O)N[C@@H](CC(N)=O)C(=O)N[C@@H](Cc1ccccc1)C(=O)O)C(C)C)C(C)C` [[A1,3,23,Q10,R11]-PTH(1-34)OH, [A^1,A^3,A^23,Q^10,R^11]-PTH(1-34)OH], in assay [1], the “cAMP in HKRK-B7 cells Max” value worked out at 63.8 pm/well.
In the case of `CC[C@H](C)[C@H](NC(=O)[C@H](CCC(=O)O)NC(=O)[C@H](C)NC(=O)[C@@H](NC(=O)[C@H](C)N)C(C)C)C(=O)N[C@@H](CCC(N)=O)C(=O)N[C@@H](CC(C)C)C(=O)N[C@@H](CCSC)C(=O)N[C@@H](Cc1c[nH]cn1)C(=O)N[C@@H](CC(N)=O)C(=O)N[C@@H](CC(C)C)C(=O)NCC(=O)N[C@@H](CCCCN)C(=O)N[C@@H](Cc1c[nH]cn1)C(=O)N[C@@H](CC(C)C)C(=O)N[C@@H](CC(N)=O)C(=O)N[C@@H](CO)C(=O)N[C@@H](CCSC)C(=O)N[C@@H](CCC(=O)O)C(=O)N[C@@H](CCCNC(=N)N)C(=O)N[C@H](C(=O)N[C@@H](CCC(=O)O)C(=O)N[C@@H](C)C(=O)N[C@@H](CC(C)C)C(=O)N[C@@H](CCCNC(=N)N)C(=O)N[C@@H](CCCCN)C(=O)N[C@@H](CCCCN)C(=O)N[C@@H](CC(C)C)C(=O)N[C@@H](CCC(N)=O)C(=O)N[C@@H](CC(=O)O)C(=O)N[C@H](C(=O)N[C@@H](Cc1c[nH]cn1)C(=O)N[C@@H](CC(N)=O)C(=O)N[C@@H](Cc1ccccc1)C(=O)O)C(C)C)C(C)C` [[A1,3,23]-PTH(1-34)OH, [A^1,A^3,A^23]-PTH(1-34)OH] (H-AVAEIQLMHNLGKHLNSMERVEALRKKLQDVHNF-OH; N-terminus assumed), in assay [1], the “cAMP in HKRK-B7 cells Max” value stood at 66.6 pm/well. For the same compound, the R0/RG ratio in assay [2] was determined as 4291.
On to `CC[C@H](C)[C@H](NC(=O)[C@H](CCC(=O)O)NC(=O)[C@H](CO)NC(=O)[C@@H](NC(=O)[C@@H](N)CO)C(C)C)C(=O)N[C@@H](CCC(N)=O)C(=O)N[C@@H](CC(C)C)C(=O)N[C@@H](CCSC)C(=O)N[C@@H](Cc1c[nH]cn1)C(=O)N[C@@H](CC(N)=O)C(=O)N[C@@H](CC(C)C)C(=O)NCC(=O)N[C@@H](CCCCN)C(=O)N[C@@H](Cc1c[nH]cn1)C(=O)N[C@@H](CC(C)C)C(=O)N[C@@H](CC(N)=O)C(=O)N[C@@H](CO)C(=O)N[C@@H](CCSC)C(=O)N[C@@H](CCC(=O)O)C(=O)N[C@@H](CCCNC(=N)N)C(=O)N[C@H](C(=O)N[C@@H](CCC(=O)O)C(=O)N[C@@H](Cc1c[nH]c2ccccc12)C(=O)N[C@@H](CC(C)C)C(=O)N[C@@H](CCCNC(=N)N)C(=O)N[C@@H](CCCCN)C(=O)N[C@@H](CCCCN)C(=O)N[C@@H](CC(C)C)C(=O)N[C@@H](CCC(N)=O)C(=O)N[C@@H](CC(=O)O)C(=O)N[C@H](C(=O)N[C@@H](Cc1c[nH]cn1)C(=O)N[C@@H](CC(N)=O)C(=O)N[C@@H](Cc1ccccc1)C(=O)O)C(C)C)C(C)C` [hPTH(1-34), Human parathyroid hormone (1-34)], for which, in assay [3], the “FRET signal after exchange to ligand-free buffer, in words” value was “remained suppressed” and the “reduction (magnitude) of FRET signal” value was around 13%.
For “[Aib^1,3,Gln^10,Har^11,Ala^12,Trp^14]rPTH(1-14)NH2 ([Aib]V[Aib]EIQLMHQ[hArg]AKW-NH2; N-terminus assumed; SMILES CC[C@H](C)[C@H](NC(=O)[C@H](CCC(=O)O)NC(=O)C(C)(C)NC(=O)[C@@H](NC(=O)C(C)(C)N)C(C)C)C(=O)N[C@@H](CCC(N)=O)C(=O)N[C@@H](CC(C)C)C(=O)N[C@@H](CCSC)C(=O)N[C@@H](Cc1c[nH]cn1)C(=O)N[C@@H](CCC(N)=O)C(=O)N[C@@H](CCCCNC(=N)N)C(=O)N[C@@H](C)C(=O)N[C@@H](CCCCN)C(=O)N[C@@H](Cc1c[nH]c2ccccc12)C(N)=O) [[Aib^1,3,M]PTH(1-14)]”, the “reduction (magnitude) of FRET signal” value in assay [3] was around 5%.
